Results from US11649430B2 (priority 2018, dated 2023).
Entries after “also recorded” stand apart in the source; their conditions may differ.

Columns and labels:
A. flavus [1] = type: cell-based, Aspergillus flavus; settings: for germination rate: 0.1 mM, 0.2 mM, 0.4 mM
A. oryzae = assay: Germination assay with purified imizoquins, A. oryzae; type: cell-based, Aspergillus oryzae
Protocol: (§1) Germination Assay: Each strain was grown in triplicate in 2 mL of liquid GMM inoculated with 1×10^5 spores mL^−1 in a well of a sterile Costar® 12-well plate (Corning) and incubated at 30° C. in OKO-Lab microscopic enclosure equipped with a Nikon Eclipse Ti inverted microscope. Germinated spores were observed using a Nikon Plan Fluor 20xPh1 DLL objective and phase-contrast microscope. A spore was considered germinated when the length of the spore protrusion (emerging hyphal tip) exceeded the spore's diameter^15,33. Images were captured hourly using the Nikon NIS Elements AR software package (v. 4.13), and the germination rate was determined by counting germlings per hundred spores. The experiment was repeated three times.
(§2) Germination Assay with Purified Imizoquins. Compounds 1-2 were assessed for their effect on germination of different fungal strains. Each metabolite was dissolved in methanol at a starting concentration of 10 mg mL^−1 and stored at −80° C. Sterile Costar® 96 well plates containing 100 μL of GMM supplemented with various concentrations of purified 1-2 (0.1 mM, 0.2 mM, 0.4 mM, 0.8 mM and 1.2 mM) were inoculated at 1×10^5 spores/well. Spores treated with equivalent volumes of the carrier (methanol) served as negative controls for each experiment. The germination rate (%) was measured as above with each treatment assayed in triplicate.

A. nidulans = assay: Germination assay with purified imizoquins, A. nidulans; type: cell-based, Aspergillus nidulans
Protocol: as §1, §2

A. fumigatus = assay: Germination assay with purified imizoquins, A. fumigatus; type: cell-based, Aspergillus fumigatus
Protocol: as §1, §2

Penicillium expansum = assay: Germination assay with purified imizoquins, Penicillium expansum; type: cell-based
Protocol: as §1, §2

A. flavus [2] = assay: Germination ROS assay (H2O2 plus imizoquin A); type: cell-based, Aspergillus flavus; settings: 0.7 mM H2O2, 0.1, 0.2, 0.4 mM compound
[3] = Antioxidant Assay (OxiSelect Total Antioxidant Capacity Assay Kit); type: biochemical; settings: 0-1 mM; compared to uric acid; absorbance 490 nm (Supporting Figure S9)
Protocol: Antioxidant Assay: ROS quenching potential of the imizoquins was analyzed using the OxiSelect™ Total Antioxidant Capacity Assay Kit (Cell Biolabs, Inc., San Diego, Calif.) following the manufacturer's instructions. Briefly, 20 μL of diluted uric acid standards (0-1 mM) and imizoquins (0-1 mM) were combined with 180 μL of 1× reaction buffer/well in a Costar® 96 well plate. After mixing thoroughly, an initial absorbance was obtained at 490 nm using a BioTek EPOCH 2 microplate reader with Gen5 acquisition software. Then 50 μL of the 1× copper ion reagent was added into each well and the plate was incubated for 5 minutes on an orbital shaker. To terminate the reaction, 50 μL of 1× stop solution was added and the final absorbance was measured again at 490 nm.

R. solanacearum = type: cell-based, Ralstonia solanacearum; settings: WT (GMI1000) strain; 0.4 mM; 24 hours

| SMILES | germination rate (A. flavus [1]) | germination rate in the presence of H2O2 (A. flavus [2]; WT strain) | germination rate in the presence of H2O2 (A. flavus [2]; ΔimqK strain) | antioxidant activity (ROS quenching potential) [3] | R. solanacearum growth (OD) (R. solanacearum) | germination (A. flavus [1]) | further results |
| --- | --- | --- | --- | --- | --- | --- | --- |
| COC1=C(O)C(=O)C2=C(C1=O)[C@H]1N[C@@H](Cc3c[nH]c4ccccc34)C(=O)N1C(C(=O)N[C@@H](CC(C)CO)C(=O)O)C2 (stereo partly shown) [Imizoquin A, imizoquin A] | restores germination in the ΔimqK mutant in a dose-dependent manner; also recorded: increased germination of both ΔimqK and WT to above that of untreated OE::imqK | counteracted the germination inhibitory activity of H2O2 | counteracted the germination inhibitory activity of H2O2 | significant antioxidant activities | decreases R. solanacearum growth modestly | – | concentration up to which the germination effect is dose-dependent (A. oryzae; A. oryzae): about 0.4 mM; germination rate (A. oryzae; A. oryzae (Supporting Figure S8)): increases the germination rate; germination rate (A. nidulans): increases the germination rate; concentration up to which the germination effect is dose-dependent (A. nidulans; A. nidulans): about 0.4 mM; germination rate (A. fumigatus): increases the germination rate; concentration up to which the germination effect is dose-dependent (A. fumigatus; A. fumigatus): about 0.4 mM; concentration up to which the germination effect is dose-dependent (Penicillium expansum): about 0.4 mM; germination rate (Penicillium expansum): increased the germination rate; germination rate in the presence of H2O2 (A. flavus [2]; WT strain, listed as imizoquin A): protected spores from the germination inhibitory effects of H2O2; germination rate in the presence of H2O2 (A. flavus [2]; ΔimqK strain, listed as imizoquin A): protected spores from the germination inhibitory effects of H2O2 |
| OO [H2O2, hydrogen peroxide] | – | – | – | – | – | – | spore survival (A. flavus spores): 50% |
| COC1=C(O)C(=O)C2=C(C1=O)[C@H]1N[C@@H](Cc3c[nH]c4ccccc34)C(=O)N1C(C(=O)N[C@@H](CC(CO)CO)C(=O)O)C2 (stereo partly shown) [Imizoquin B, imizoquin B] | restores germination in the ΔimqK mutant in a dose-dependent manner; also recorded: increased germination of both ΔimqK and WT to above that of untreated OE::imqK | protected spores from the germination inhibitory effects of H2O2 | protected spores from the germination inhibitory effects of H2O2 | significant antioxidant activities | decreases R. solanacearum growth modestly | – | – |
| COc1c(O)cc2c(c1O)CN(C(=O)[C@@H](N)Cc1c[nH]c3ccccc13)[C@H](C(=O)N[C@@H](CC(CO)CO)C(=O)O)C2 [TMC-2A, reference compound] | – | – | – | showed antioxidant properties | – | similarly accelerated germination | – |
| COc1c(O)cc2c(c1O)CN(C(=O)[C@@H](N)Cc1c[nH]c3ccccc13)[C@H](C(=O)N[C@@H](CC(C)CO)C(=O)O)C2 (stereo partly shown) [TMC-2B, reference compound] | – | – | – | showed antioxidant properties | – | similarly accelerated germination | – |
